Here are results for 15 molecules from PubChem BioAssay (NCI).

Some test systems named below: SF-295 CNS; HCT-116 colon; HOP-92 NSCLC; SF-268 CNS; SK-MEL-5 melanoma; HOP-62 NSCLC; HL-60(TB) leukemia; SNB-19 CNS; OVCAR-4 ovarian.
Test in all cases: growth of human tumour cells (NCI), 48 h

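Method: 48-hour compound exposure of cells in 96-well plates, five concentrations, linear interpolation of endpoints. At the GI50, growth is halved. At the TGI there is no net growth.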

For `Cc1ccc(C)c(NC(=O)C(=O)CC(=O)C2CCOC2=O)c1` (stereo unspecified), the TGI in the experiment with SF-295 CNS, in the experiment on HCT-116 colon, in the experiment on HOP-92 NSCLC, in the experiment with SF-268 CNS, in the experiment with SK-MEL-5 melanoma and with HOP-62 NSCLC was more than 100 µM each time. In addition, the TGI with HL-60(TB) leukemia, with SNB-19 CNS and in the experiment with OVCAR-4 ovarian was more than 100 µM each time.
For `CCC(C)CN1C(=O)NC(C)(Cc2ccccc2)C1=O` (stereo unspecified), the TGI with SF-295 CNS, with HOP-92 NSCLC, in the experiment on SF-268 CNS, with SK-MEL-5 melanoma, with HOP-62 NSCLC and with HL-60(TB) leukemia was more than 100 µM in each case. The molecule further yielded a TGI with SNB-19 CNS of more than 100 µM.
For `COc1cc(C(=O)OCCCCCCCCCCC[P+](c2ccccc2)(c2ccccc2)c2ccccc2)ccc1O`, the values for the GI50 in the experiment with HCT-116 colon and in the experiment with HL-60(TB) leukemia were 0.273 µM and 0.282 µM, respectively. Also, the TGI in the experiment with HCT-116 colon turned out to be 1.09 µM; in the experiment with HL-60(TB) leukemia it was 0.734 µM.
Consider `N=C(c1ccccc1)N(c1ccccc1)c1ccccc1`, for which the TGI in the experiment with SF-295 CNS, with HCT-116 colon, in the experiment with SF-268 CNS, in the experiment with HOP-62 NSCLC, with HL-60(TB) leukemia and in the experiment on SNB-19 CNS was more than 100 µM each time. Besides, in the experiment on OVCAR-4 ovarian, the TGI is more than 100 µM.
Consider `O=C1c2ccccc2C2(O)Nc3cc(O)ccc3C12O` (stereo unspecified), for which the TGI with SF-295 CNS, in the experiment with HCT-116 colon, with HOP-92 NSCLC, in the experiment on SF-268 CNS, with SK-MEL-5 melanoma and in the experiment with HOP-62 NSCLC was more than 100 µM throughout. Further, the TGI with HL-60(TB) leukemia, in the experiment on SNB-19 CNS and with OVCAR-4 ovarian was more than 100 µM throughout.
In the case of `C=C1C(=O)O[C@H]2[C@H]1CC/C(CNC(=O)/C=C/c1ccc(Br)cc1)=C\CC[C@@]1(C)O[C@@H]21`, the GI50 in the experiment on SF-295 CNS is 2.16 µM; with HCT-116 colon it was 0.667 µM; with HOP-92 NSCLC, 0.659 µM; in the experiment on SF-268 CNS it was 1.78 µM; with SK-MEL-5 melanoma, 1.6 µM; in the experiment on HOP-62 NSCLC it was 2.2 µM. The GI50 was 0.744 µM in the experiment on HL-60(TB) leukemia, 1.61 µM in the experiment on SNB-19 CNS and 1.37 µM with OVCAR-4 ovarian. Further, the TGI with SF-295 CNS worked out at 5.81 µM; with HCT-116 colon, 1.95 µM; in the experiment on HOP-92 NSCLC, 2.26 µM; with SF-268 CNS it was 4.27 µM; in the experiment on SK-MEL-5 melanoma, 2.96 µM; in the experiment on HOP-62 NSCLC, 6.87 µM. Further, the TGI in the experiment on HL-60(TB) leukemia was 7.28 µM; in the experiment on SNB-19 CNS, 4.6 µM; in the experiment on OVCAR-4 ovarian, 2.96 µM.
Take `COc1ccc(/C(=N/NC(N)=O)C2(O)C(=O)Nc3ccc([N+](=O)[O-])cc32)cc1` (stereo unspecified): the TGI in the experiment on HCT-116 colon is 36.1 µM; in the experiment with HOP-92 NSCLC, 45.4 µM; in the experiment with SF-268 CNS, 40.6 µM; with SK-MEL-5 melanoma it was 77.2 µM; with HOP-62 NSCLC, more than 100 µM; in the experiment on SNB-19 CNS it was more than 10 µM. In the experiment with OVCAR-4 ovarian, this molecule gave a TGI of 27.1 µM.
Consider `CC[P+](C)(Cc1ccccc1)c1ccccc1` (stereo unspecified), for which the TGI in the experiment on SF-295 CNS, with HCT-116 colon, with SK-MEL-5 melanoma, in the experiment on HOP-62 NSCLC, with HL-60(TB) leukemia and in the experiment on SNB-19 CNS was more than 100 µM throughout. The molecule also displayed a TGI in the experiment on OVCAR-4 ovarian of more than 100 µM.
In the case of `C#CCC[C@@H]1O[C@@]1(C)CC/C=C(\C)CC/C=C/C=O`, the TGI in the experiment with SF-295 CNS is 79.4 µM; in the experiment on HOP-92 NSCLC, 63.5 µM; in the experiment on SF-268 CNS it was 56.3 µM; in the experiment on HOP-62 NSCLC, more than 100 µM; in the experiment on HL-60(TB) leukemia, 60.8 µM; with SNB-19 CNS, more than 100 µM.
Regarding `COc1cc(-c2nn3c(/C=C4/C(=O)Nc5ccccc54)c(-c4ccc(C)cc4)nc3s2)cc(OC)c1OC`, the GI50 with SF-295 CNS is 5.04 µM; with HCT-116 colon, 2.59 µM; in the experiment with HOP-92 NSCLC, 0.42 µM; in the experiment with SF-268 CNS it was 3.62 µM; in the experiment with HOP-62 NSCLC it was 4.14 µM; in the experiment on HL-60(TB) leukemia it was more than 100 µM. Further, in the experiment on SNB-19 CNS, the GI50 is 7.89 µM. Besides, the TGI with SF-295 CNS is 31.1 µM; in the experiment with HCT-116 colon, 13.8 µM; with HOP-92 NSCLC it was 8.99 µM; with SF-268 CNS it was more than 100 µM; in the experiment with HOP-62 NSCLC, 23.3 µM; with HL-60(TB) leukemia, more than 100 µM. In the experiment with SNB-19 CNS, this molecule yielded a TGI of 34.2 µM.
In the case of `C=CCC1OC(C)(C)Oc2ccc(OCOCCOC)cc21` (stereo unspecified), the TGI in the experiment with SF-295 CNS, with HCT-116 colon, with HOP-92 NSCLC, with SF-268 CNS, with SK-MEL-5 melanoma and with HOP-62 NSCLC was more than 100 µM throughout. Further, the TGI in the experiment with SNB-19 CNS and with OVCAR-4 ovarian was more than 100 µM in each case.
Regarding `N#Cc1cccc(N2C(=O)c3c(c(-c4ccccc4)c(-c4ccc(Sc5ccc(-c6c(-c7ccccc7)c7c(c(-c8ccccc8)c6-c6ccccc6)C(=O)N(c6cccc(C#N)c6)C7=O)cc5)cc4)c(-c4ccccc4)c3-c3ccccc3)C2=O)c1`, the TGI in the experiment with SF-295 CNS was more than 100 µM; in the experiment with HCT-116 colon, more than 100 µM; in the experiment with HOP-92 NSCLC, 99.4 µM; with SF-268 CNS it was more than 100 µM; with SK-MEL-5 melanoma it was more than 100 µM; with HOP-62 NSCLC, more than 100 µM. Also, the TGI with HL-60(TB) leukemia, with SNB-19 CNS and in the experiment with OVCAR-4 ovarian was more than 100 µM in each case.
Turning to `CC1=C(C(=O)NCc2ccccc2)C(c2ccc(C3C(C(=O)NCc4ccccc4)=C(C)NC(C)=C3C(=O)NCc3ccccc3)cc2)C(C(=O)NCc2ccccc2)=C(C)N1`, the TGI was found to be 38.2 µM in the experiment on SF-295 CNS; 10.2 µM in the experiment with HCT-116 colon; 32.9 µM in the experiment on HOP-92 NSCLC; 81.7 µM in the experiment on SF-268 CNS; 30.9 µM with SK-MEL-5 melanoma; 41.1 µM with HOP-62 NSCLC. Besides, the values for the TGI in the experiment with HL-60(TB) leukemia, in the experiment with SNB-19 CNS and in the experiment with OVCAR-4 ovarian were 44.7 µM, 29.2 µM and 31.3 µM, respectively.
Regarding `Nc1nc(CCC(=O)Nc2cccc(C(F)(F)F)c2)cc(-c2cccc3ccccc23)n1`, the TGI in the experiment on SF-295 CNS, in the experiment on HCT-116 colon, with SF-268 CNS, in the experiment on SK-MEL-5 melanoma, in the experiment on HOP-62 NSCLC and in the experiment with HL-60(TB) leukemia was more than 100 µM each time. Further, the TGI with SNB-19 CNS and with OVCAR-4 ovarian was more than 100 µM in each case.
Turning to `CC1CC2C3CC(F)C4=CC(=O)C=CC4(C)C3(F)C(O)CC2(C)C1(O)C(=O)COC(=O)C(C)(C)C` (stereo unspecified), the TGI in the experiment on SF-295 CNS, with HCT-116 colon, in the experiment with HOP-92 NSCLC, with SF-268 CNS, in the experiment on SK-MEL-5 melanoma and in the experiment with HOP-62 NSCLC was more than 100 µM throughout. Also, the TGI in the experiment with HL-60(TB) leukemia, in the experiment on SNB-19 CNS and in the experiment on OVCAR-4 ovarian was more than 100 µM in each case.
